4 molecules from US11059809B2, “Substituted cyanopyrrolidines with activity as DUB inhibitors” (MISSION THERAPEUTICS LIMITED, priority 2017, dated 2021) can be followed below.

Each structure is given as a SMILES string.

This assay addresses USP30 (Homo sapiens (Human), UniProt Q70CQ3). Put plainly: USP30 Biochemical IC50 Assay. The following applies: fluorescence polarisation, TAMRA labelled peptide linked to ubiquitin as substrate. Here is the method:
Dilution plates were prepared at 21 times the final concentration (2100 μM for a final concentration of 100 μM) in 50% DMSO in a 96-well polypropylene V-bottom plate (Greiner #651201). A typical 8-point dilution series would be 100, 30, 10, 3, 1, 0.3, 0.1, 0.03 μM final. Reactions were performed in duplicate in black 384 well plates (small volume, Greiner 784076) in a final reaction volume of 21 μl. Either 1 μl of 50% DMSO or diluted compound was added to the plate. USP30 was diluted in reaction buffer (40 mM Tris, pH 7.5, 0.005% Tween 20, 0.5 mg/ml BSA, 5 mM beta-mercaptoethanol) to the equivalent of 0.05 μl/well and 10 μl of diluted USP30 was added to the compound. Enzyme and compound were incubated for 30 min at room temp. Reactions were initiated by the addition of 50 nM of TAMRA labelled peptide linked to ubiquitin via an iso-peptide bond as fluorescence polarisation substrate. Reactions were read immediately after addition of substrate and following a 2-hour incubation at room temperature. Readings were performed on a Pherastar Plus (BMG Labtech). λ Excitation 540 nm; λ Emission 590 nm.
On the technique in general: Polarisation of emitted light reports the rotation of a fluorescent probe.

Sequence of USP30 (Q70CQ3 whole entry): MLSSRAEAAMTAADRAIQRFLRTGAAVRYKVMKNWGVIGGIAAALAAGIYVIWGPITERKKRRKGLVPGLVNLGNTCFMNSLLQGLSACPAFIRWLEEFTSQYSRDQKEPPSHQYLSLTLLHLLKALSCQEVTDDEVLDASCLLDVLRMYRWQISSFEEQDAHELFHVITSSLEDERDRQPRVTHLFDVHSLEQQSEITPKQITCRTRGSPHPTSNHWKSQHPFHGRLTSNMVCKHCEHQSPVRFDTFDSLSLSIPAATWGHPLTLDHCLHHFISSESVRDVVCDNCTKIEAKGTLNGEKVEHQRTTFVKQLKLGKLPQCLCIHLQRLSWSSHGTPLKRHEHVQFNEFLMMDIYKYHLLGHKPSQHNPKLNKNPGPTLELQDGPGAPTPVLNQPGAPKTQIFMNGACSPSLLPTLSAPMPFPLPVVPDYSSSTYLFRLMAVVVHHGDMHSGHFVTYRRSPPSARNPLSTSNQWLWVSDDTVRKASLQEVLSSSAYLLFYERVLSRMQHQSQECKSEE

For the molecule `C[C@@H]1[C@H](CNC(=O)c2ncn(-c3cccc(C#N)c3)n2)CCN1C#N` (mixture of isomers) [Example 4, N-(((2R,3R)-1-cyano-2-methylpyrrolidin-3-yl)methyl)-1-(3-cyanophenyl)-1H-1,2,4-triazole-3-carboxamide and N-(((2R,3S)-1-cyano-2-methylpyrrolidin-3-yl)methyl)-1-(3-cyanophenyl)-1H-1,2,4-triazole-3-carboxamide], the 50% inhibitory concentration (IC50) (usually the concentration at which inhibition is half-maximal) was in the range of 0.01 to 0.1 µM.

`CN(C[C@H]1CCN(C#N)C1)C(=O)c1ncn(-c2cccc(C#N)c2)n1` [Example 2, (S)-1-(3-cyanophenyl)-N-((1-cyanopyrrolidin-3-yl)methyl)-N-methyl-1H-1,2,4-triazole-3-carboxamide]: the IC50 was in the range of 0.01 to 0.1 µM.

Molecule `N#Cc1cccc(-n2cc(C(=O)NC[C@H]3CCN(C#N)C3)nn2)c1` [Example 5, (R)-1-(3-cyanophenyl)-N((1-cyanopyrrolidin-3-yl)methyl)-1H-1,2,3-triazole-4-carboxamide] yielded a half-inhibitory concentration (IC50) of 0.1 to 1 µM.

`N#CN1CC[C@H](CNC(=O)c2cnn(-c3cccc(Cl)c3)n2)C1` [Example 7, (R)-2-(3-chlorophenyl)-N-((1-cyanopyrrolidin-3-yl)methyl)-2H-1,2,3-triazole-4-carboxamide] returned an IC50 below 0.01 µM.
